Source: ChEMBL document CHEMBL4316626, “N-Acyl pyrazoles: Effective and tunable inhibitors of serine hydrolases” (Bioorg Med Chem, 2019)
Calls of active or inactive are those of the source. No cut-off for these calls is given here.

Key:
[1] = molecular target: T1, Fatty-acid amide hydrolase 1 (Mus musculus, UniProt O08914); test: Inhibition of FP-rhodamine probe binding to FAAH in mouse brain membrane proteome preincubated for 1 hr followed by FP-rhodamine addition and measured after 30 mins by SDS-PAGE based fluorescence assay; format: cell membranes
T1 sequence (O08914 whole entry): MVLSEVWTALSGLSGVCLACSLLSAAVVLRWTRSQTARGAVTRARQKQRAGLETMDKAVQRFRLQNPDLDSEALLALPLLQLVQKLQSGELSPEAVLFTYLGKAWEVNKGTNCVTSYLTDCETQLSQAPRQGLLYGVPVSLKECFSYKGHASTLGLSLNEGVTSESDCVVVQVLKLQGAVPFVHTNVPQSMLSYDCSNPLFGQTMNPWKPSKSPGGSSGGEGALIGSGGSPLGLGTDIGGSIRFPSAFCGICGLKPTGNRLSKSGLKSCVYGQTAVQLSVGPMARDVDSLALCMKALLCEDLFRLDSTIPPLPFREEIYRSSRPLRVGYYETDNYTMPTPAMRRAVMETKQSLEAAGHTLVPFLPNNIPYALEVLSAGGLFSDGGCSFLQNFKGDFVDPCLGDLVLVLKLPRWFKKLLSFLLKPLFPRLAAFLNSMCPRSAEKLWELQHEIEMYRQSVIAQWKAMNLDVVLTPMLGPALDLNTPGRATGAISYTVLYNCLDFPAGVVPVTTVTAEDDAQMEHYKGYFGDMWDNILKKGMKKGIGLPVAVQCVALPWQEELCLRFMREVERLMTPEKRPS

[2] = molecular target: T2, Monoacylglycerol lipase ABHD6 (Mus musculus, UniProt Q8R2Y0); test: Inhibition of FP-rhodamine probe binding to ABHD6 in mouse brain membrane proteome preincubated for 1 hr followed by FP-rhodamine addition and measured after 30 mins by SDS-PAGE based fluorescence assay; format: cell membranes
T2 sequence (Q8R2Y0 whole entry): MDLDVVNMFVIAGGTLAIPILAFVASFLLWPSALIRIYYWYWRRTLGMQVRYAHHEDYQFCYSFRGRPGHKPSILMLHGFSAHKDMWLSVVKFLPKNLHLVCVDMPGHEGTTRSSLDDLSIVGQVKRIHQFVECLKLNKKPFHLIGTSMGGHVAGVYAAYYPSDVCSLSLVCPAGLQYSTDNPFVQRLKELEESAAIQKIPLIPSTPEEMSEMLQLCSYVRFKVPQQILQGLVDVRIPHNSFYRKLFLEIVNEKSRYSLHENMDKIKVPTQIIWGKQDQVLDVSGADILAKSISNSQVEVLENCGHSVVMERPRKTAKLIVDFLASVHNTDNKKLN

[3] = molecular target: T3, Neutral cholesterol ester hydrolase 1 (Mus musculus, UniProt Q8BLF1); test: Inhibition of FP-rhodamine probe binding to KIAA1363 in mouse brain membrane proteome preincubated for 1 hr followed by FP-rhodamine addition and measured after 30 mins by SDS-PAGE based fluorescence assay; format: cell membranes
T3 sequence (Q8BLF1 whole entry): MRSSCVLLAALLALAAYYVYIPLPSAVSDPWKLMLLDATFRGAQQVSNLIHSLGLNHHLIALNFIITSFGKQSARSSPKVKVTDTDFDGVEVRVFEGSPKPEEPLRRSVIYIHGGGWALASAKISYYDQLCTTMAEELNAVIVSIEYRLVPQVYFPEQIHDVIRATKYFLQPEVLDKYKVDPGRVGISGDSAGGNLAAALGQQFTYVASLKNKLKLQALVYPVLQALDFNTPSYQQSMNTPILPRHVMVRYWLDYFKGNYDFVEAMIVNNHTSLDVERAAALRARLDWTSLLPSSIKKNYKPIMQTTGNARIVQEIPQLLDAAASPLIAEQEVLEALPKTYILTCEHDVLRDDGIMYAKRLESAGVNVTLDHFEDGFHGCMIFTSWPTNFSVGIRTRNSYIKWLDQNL

[4] = molecular target: T4, Monoglyceride lipase (Mus musculus, UniProt O35678); test: Inhibition of FP-rhodamine probe binding to MGLL in mouse brain membrane proteome preincubated for 1 hr followed by FP-rhodamine addition and measured after 30 mins by SDS-PAGE based fluorescence assay; format: cell membranes
T4 sequence (O35678 whole entry): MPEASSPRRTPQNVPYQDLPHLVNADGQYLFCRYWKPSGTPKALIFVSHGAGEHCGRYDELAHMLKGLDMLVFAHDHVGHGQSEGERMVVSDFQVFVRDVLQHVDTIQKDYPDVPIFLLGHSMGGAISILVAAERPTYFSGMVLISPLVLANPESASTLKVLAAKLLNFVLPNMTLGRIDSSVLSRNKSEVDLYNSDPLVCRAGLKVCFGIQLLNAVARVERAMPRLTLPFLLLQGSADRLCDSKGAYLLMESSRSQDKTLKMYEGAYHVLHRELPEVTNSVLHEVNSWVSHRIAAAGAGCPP

[5] = Inhibition of recombinant rat FAAH deltaTM mutant expressed in Escherichia coli using 14C-labeled oleamide as substrate preincubated for 3 hrs followed by substrate addition and measured by TLC based Dixon-plot analysis; conditions: read-out: Ki(app)
[6] = organism: Rattus norvegicus; test: Inhibition of recombinant rat FAAH deltaTM mutant expressed in Escherichia coli at 100 nM using 14C-labeled oleamide as substrate preincubated for 3 hrs by TLC method relative to control
[7] = organism: Rattus norvegicus; test: Time-dependent irreversible inhibition of recombinant rat FAAH deltaTM mutant expressed in Escherichia coli using 14C-labeled oleamide as substrate by TLC method
[8] = organism: Rattus norvegicus; test: Irreversible inhibition of recombinant rat FAAH deltaTM mutant expressed in Escherichia coli at 100 nM using 14C-labeled oleamide as substrate preincubated for 3 hrs followed by dialysis for 18 hrs
[9] = organism: Rattus norvegicus; test: Inhibition of recombinant rat FAAH deltaTM mutant expressed in Escherichia coli at 10 nM using 14C-labeled oleamide as substrate preincubated for 3 hrs by TLC method relative to control
[10] = organism: Rattus norvegicus; test: Irreversible inhibition of recombinant rat FAAH deltaTM mutant expressed in Escherichia coli at 10 nM using 14C-labeled oleamide as substrate preincubated for 3 hrs followed by dialysis for 18 hrs
[11] = organism: Rattus norvegicus; test: Inhibition of recombinant rat FAAH deltaTM mutant expressed in Escherichia coli at 50 nM using 14C-labeled oleamide as substrate preincubated for 3 hrs by TLC method relative to control
[12] = organism: Rattus norvegicus; test: Irreversible inhibition of recombinant rat FAAH deltaTM mutant expressed in Escherichia coli at 50 nM using 14C-labeled oleamide as substrate preincubated for 3 hrs followed by dialysis for 18 hrs

IC50 [1] [µM] | IC50 [2] [µM] | IC50 [3] [µM] | IC50 [4] [µM] | inhibition [6] [%] | TDI [7] | inhibition [8] | inhibition [9] [%] | inhibition [10] | inhibition [11] [%] | inhibition [12] | Structure (SMILES) | Ki [5] [µM]
3 | 5.5 | > 100 | 4.6 | – | – | – | – | – | – | – | CN(CCN(C)C(=O)n1cccn1)Cc1cccc(OCc2ccccc2)c1 | 0.0066
> 1000 | > 1000 | > 1000 | > 1000 | – | – | – | – | – | – | – | Cc1cnn(C(=O)N(C)CCN(C)C(c2ccc(OCc3ccccc3)cc2)c2ccc(OCc3ccccc3)cc2)c1 | 140
0.06 | – | > 100 | 0.1 | – | – | – | – | – | – | – | N#Cc1cnn(C(=O)NCc2ccc(OCc3ccccc3)cc2)c1 | 0.017
0.65 | 0.01 | > 100 | 0.2 | > 70 | Active | Active | – | – | – | – | Cc1cnn(C(=O)N2CCN(Cc3ccc(OCc4ccccc4)cc3)CC2)c1 | 0.1
< 0.01 | < 0.01 | > 100 | 0.055 | – | – | – | > 70 | Active | – | – | N#Cc1cnn(C(=O)N2CCN(Cc3ccc4ccccc4c3)CC2)c1 | 0.00016
> 100 | > 100 | > 100 | 1.8 | – | – | – | – | – | – | – | O=C(N1CCN(C(c2ccc3ccccc3c2)c2ccc3ccccc3c2)CC1)n1cccn1 | –
< 0.01 | 0.085 | > 100 | 10 | – | – | – | – | – | – | – | N#Cc1cnn(C(=O)N2CCCN(Cc3ccc(OCc4ccccc4)cc3)CC2)c1 | 0.0015
2.2 | 1.1 | > 100 | 9.2 | – | – | – | – | – | – | – | Cc1cnn(C(=O)N2CCCCC2)c1 | > 1
0.06 | 0.22 | > 100 | 0.45 | – | Active | – | – | – | > 70 | Active | O=C(N1CCN(Cc2ccc(OCc3ccccc3)cc2)CC1)n1cccn1 | 0.01
> 1000 | > 1000 | > 1000 | > 1000 | – | – | – | – | – | – | – | CN(CCN(C)C(c1ccc(OCc2ccccc2)cc1)c1ccc(OCc2ccccc2)cc1)C(=O)n1cccn1 | –
> 100 | – | > 100 | > 100 | – | – | – | – | – | – | – | Cc1cnn(C(=O)NCc2ccc(OC(c3ccccc3)c3ccccc3)cc2)c1 | 220
9 | 8.3 | > 100 | 4.1 | – | – | – | – | – | – | – | Cc1cnn(C(=O)N(C)CCN(C)Cc2cccc(OCc3ccccc3)c2)c1 | 0.035
> 100 | > 100 | > 100 | 2.1 | – | – | – | – | – | – | – | Cc1cnn(C(=O)N2CCN(C(c3ccc(OCc4ccccc4)cc3)c3ccc(OCc4ccccc4)cc3)CC2)c1 | 110
> 100 | – | > 100 | > 100 | – | – | – | – | – | – | – | N#Cc1cnn(C(=O)NCc2ccc(OC(c3ccccc3)c3ccccc3)cc2)c1 | 80
0.51 | 0.53 | > 100 | 0.66 | – | – | – | – | – | – | – | CN(CCN(C)C(=O)n1cccn1)Cc1ccc(OCc2ccccc2)cc1 | 0.013
0.56 | 9.5 | > 100 | 9.5 | – | – | – | – | – | – | – | Cc1cnn(C(=O)N2CCCN(Cc3ccc(OCc4ccccc4)cc3)CC2)c1 | 0.23

IC50 [1] [µM] | IC50 [2] [µM] | IC50 [3] [µM] | IC50 [4] [µM] | inhibition [6] [%] | TDI [7] | inhibition [8] | inhibition [9] [%] | inhibition [10] | inhibition [11] [%] | inhibition [12] | Structure (SMILES) | Ki [5] [µM]
0.09 | 0.01 | > 100 | 0.96 | – | – | – | – | – | > 70 | Active | O=C(N1CCN(Cc2ccc3ccccc3c2)CC1)n1cccn1 | 0.0098
1.2 | – | > 100 | 1 | – | – | – | – | – | – | – | Cc1cnn(C(=O)NCc2ccc(OCc3ccccc3)cc2)c1 | 0.3
< 0.01 | 0.06 | > 100 | 0.12 | – | – | – | – | – | – | – | N#Cc1cnn(C(=O)N2CCCCC2)c1 | 0.08
8.7 | 1.2 | > 100 | 1.2 | – | – | – | – | – | – | – | Cc1cnn(C(=O)N(C)CCN(C)Cc2ccc(OCc3ccccc3)cc2)c1 | 0.07
0.19 | 1.1 | > 100 | 0.59 | – | – | – | – | – | – | – | CN(CCN(C)C(=O)n1cc(C#N)cn1)Cc1cccc(OCc2ccccc2)c1 | 0.0013
> 1000 | > 1000 | > 1000 | 32 | – | – | – | – | – | – | – | CN(CCN(C)C(c1ccc(OCc2ccccc2)cc1)c1ccc(OCc2ccccc2)cc1)C(=O)n1cc(C#N)cn1 | –
> 100 | > 100 | > 100 | 0.26 | – | – | – | – | – | – | – | Cc1cnn(C(=O)N2CCN(C(c3ccc4ccccc4c3)c3ccc4ccccc4c3)CC2)c1 | –
> 100 | – | > 100 | > 100 | – | – | – | – | – | – | – | O=C(NCc1ccc(OC(c2ccccc2)c2ccccc2)cc1)n1cccn1 | 140
0.12 | 0.32 | > 100 | 0.26 | – | – | – | – | – | – | – | CN(CCN(C)C(=O)n1cc(C#N)cn1)Cc1ccc(OCc2ccccc2)cc1 | 0.003
0.45 | 0.96 | > 100 | 10 | – | – | – | – | – | – | – | O=C(N1CCCN(Cc2ccc(OCc3ccccc3)cc2)CC1)n1cccn1 | 0.034
< 0.01 | < 0.01 | > 100 | < 0.01 | – | Active | – | > 70 | Active | – | – | N#Cc1cnn(C(=O)N2CCN(Cc3ccc(OCc4ccccc4)cc3)CC2)c1 | 0.00016
1 | 5 | > 100 | 6.6 | – | – | – | – | – | – | – | O=C(N1CCCCC1)n1cccn1 | 0.75
0.96 | 0.01 | > 100 | 0.92 | > 70 | – | Active | – | – | – | – | Cc1cnn(C(=O)N2CCN(Cc3ccc4ccccc4c3)CC2)c1 | 0.13
0.8 | – | > 100 | 0.9 | – | – | – | – | – | – | – | O=C(NCc1ccc(OCc2ccccc2)cc1)n1cccn1 | 0.1
> 100 | > 100 | > 100 | 3.9 | – | – | – | – | – | – | – | O=C(N1CCN(C(c2ccc(OCc3ccccc3)cc2)c2ccc(OCc3ccccc3)cc2)CC1)n1cccn1 | 73
